# Measurements reported in patent publication US20120202794A1 (priority 2011, published 2012).
# Where two headings read alike, the source gives them in different places.
# What was measured:
# [1] = Cell cytotoxicity assay (MTS), CC90 as reported in Table 1, cell line not stated; format: cell-based; conditions: human; MTS assay; 8 days incubation; cell line not given
# In short: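 Compounds, serially diluted from 100 μM, were incubated 8 days at 37° C with Huh7, HepG2 or BxPC3 (2×10^3 cells/well) or CEM (5×10^3 cells/well). Viability was read by MTS, 2 h, absorbance 490 nm. CC90 (90% inhibition) was taken against untreated cells.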
# [2] = system: HCV Replicon 1b; experiment: HCV inhibition assay, HCV replicon 1b (Clone A or ET-lunet cells; RT-PCR or luciferase reporter); format: cell-based; conditions: Hepatitis C virus, 96 h, read-out: Replicon 1b potency EC90
# In short: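 Clone A (1500/well) or ET-lunet (3000/well) replicon cells treated with serially diluted compounds (0.5% DMSO, no G418) for 4 days at 37 °C. HCV RNA measured by one-step RT-PCR normalized to rRNA (ΔΔCt) or by luciferase luminescence versus DMSO controls; EC50/EC90 by curve fitting.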
# [3] = system: genotype (GT) 1a H77 replicon; experiment: Replicon assay, H77 GT 1a replicon in Huh7-Lunet cells (RT-PCR); format: cell-based, HCV; conditions: Hepatitis C virus, GT1A, Huh-7, 96 h, 4 days incubation, read-out: RT-PCR H77 1a Potency EC90
# Description: Cell Line and Maintenance: The genotype (GT) 1a H77 replicon (Apath LLC Brooklyn, N.Y.) was stably expressed in Huh7-Lunet cells (kindly provided by R. Bartenschlager University of Heidelberg, Heidelberg, Germany) and maintained in Dulbecco's modified Eagle's medium supplemented with 10% fetal bovine serum, 0.1 mM non essential amino acids (NEAA), 4 mM L-glutamine, 1 mM sodium pyruvate and 0.750 mg/mL G418 (Geneticin) (Invitrogen, Carlsbad, Calif.).
# Replicon Assay: Inhibition of HCV in the H77 GT 1a replicon (Apath LLC, Brooklyn, N.Y.) was measured by Real-Time PCR (RT-PCR) Replicon cells were added to the plate at 1500 cells/well in 50 μL of medium and 50 μL of 2× drug dilutions were added (in duplicate) per well in a 96 well plate to total 100 μL per well. The plate was incubated at 37° C. in a humidified 8% CO2 atmosphere for 4 days. After incubation, the supernatant was discarded and total RNA was extracted with RNeasy 96 (Qiagen, Valencia Calif.) per manufacturer's instructions. The extracted RNA was amplified as described by Stuyver et al., J. Virol. (2003) 77: 10689-10694, and the ΔCt values for HCV were determined and the EC90 was calculated using GraphPad Prism software (San Diego, Calif.). A “no drug” (medium only) control was used to determine maximum amount of HCV RNA.
# [4] = HCV replicon 1b, 4 days incubation
SMILES,CC90 at 8 days [1],"EC90 [2, 4]",EC90 [3],EC90 [2]
"CC(C)C[C@H]1C(=O)N[C@@H](c2ccccc2)CN1C(=O)c1noc(-c2ccc(F)cc2)n1 [Compound 292, (3S,6S)-4-(5-(4-Fluorophenyl)-1,2,4-oxadiazole-3-carbonyl)-3-isobutyl-6-phenylpiperazin-2-one]",> 10000 nM,78 nM,79 nM,–
"CC(C)C[C@H]1C(=O)N[C@@H](c2ccccc2F)CN1C(=O)c1cc(-c2ccc(F)cc2)on1 [Compound 355, (3S,6S)-6-(2-fluorophenyl)-4-(5-(4-fluorophenyl)isoxazole-3-carbonyl)-3-isobutyl-piperazin-2-one]",> 10000 nM,93 nM,160 nM,–
"CC(C)C[C@H]1C(=O)N[C@@H](c2ccccc2F)CN1C(=O)c1noc(-c2ccc(F)cc2)n1 [Compound 370, (3S,6S)-6-(2-fluorophenyl)-4-(5-(4-fluorophenyl)-1,2,4-oxadiazole-3-carbonyl)-3-isobutylpiperazin-2-one]",> 10000 nM,61 nM,99 nM,–
"CC(C)C[C@H]1C(=O)N[C@@H](c2ccccc2F)CN1C(=O)[C@@H]1C[C@H]1c1ccc(F)cc1 [Compound 373, (3S,6S)-6-(2-fluorophenyl)-4-((1R,2R)-2-(4-fluorophenyl)cyclopropanecarbonyl)-3-isobutylpiperazin-2-one]",> 10000 nM,57 nM,87 nM,–
"CC(C)C[C@H]1C(=O)N[C@H](c2ccc(Cl)s2)CN1C(=O)c1cc(-c2ccc(F)cc2)on1 [Compound 485, (3S,6S)-6-(5-chlorothiophen-2-yl)-4-(5-(4-fluorophenyl)isoxazole-3-carbonyl)-3-isobutylpiperazin-2-one]",> 10000 nM,> 10000 nM,–,–
"CC(C)C[C@H]1C(=O)N[C@@H](c2ccc(Cl)s2)CN1C(=O)c1cc(-c2ccc(F)cc2)on1 [Compound 488, (3S,6R)-6-(5-chlorothiophen-2-yl)-4-(5-(4-fluorophenyl)isoxazole-3-carbonyl)-3-isobutylpiperazin-2-one]",> 10000 nM,700 nM,–,–
"CCC[C@H]1C(=O)N[C@@H](c2cccs2)CN1C(=O)c1cc(-c2ccc(F)cc2)on1 [Compound 491, (3S,6R)-4-(5-(4-fluorophenyl)isoxazole-3-carbonyl)-3-propyl-6-(thiophen-2-yl)piper-azin-2-one]",> 10000 nM,250 nM,–,–
"CCC[C@H]1C(=O)N[C@@H](c2cccs2)CN1C(=O)[C@@H]1C[C@H]1c1ccc(F)cc1 [Compound 495, (3S,6R)-4-((1R,2R)-2-(4-fluorophenyl)cyclopropanecarbonyl)-3-propyl-6-(thiophen-2-yl)piperazin-2-one]",> 10000 nM,290 nM,–,–
"CC(C)C[C@H]1C(=O)N[C@@H](c2ccsc2Cl)CN1C(=O)[C@@H]1C[C@H]1c1ccc(F)cc1 [Compound 500, (3S,6S)-6-(2-chlorothiophen-3-yl)-4-((1R,2R)-2-(4-fluorophenyl)cyclopropane-carbonyl)-3-isobutylpiperazin-2-one]",> 10000 nM,22 nM,–,–
"C=C[C@H]1CN(C(=O)c2cc(-c3ccc(F)cc3)on2)[C@@H](CC(C)C)C(=O)N1 [Compound 506, (3S,6S)-4-(5-(4-fluorophenyl)isoxazole-3-carbonyl)-3-isobutyl-6-vinylpiperazin-2-one]",> 10000 nM,1050 nM,–,–
"CC(C)C[C@H]1C(=O)N[C@@H](C(=O)N(C)C)CN1C(=O)c1cc(-c2ccc(F)cc2)on1 [Compound 507, (2R,5S)-4-(5-(4-fluorophenyl)isoxazole-3-carbonyl)-5-isobutyl-N,N-dimethyl-6-oxopiperazine-2-carboxamide]",> 10000 nM,840 nM,–,–
"CNC(=O)[C@H]1CN(C(=O)c2cc(-c3ccc(F)cc3)on2)[C@@H](CC(C)C)C(=O)N1 [Compound 508, (2R,5S)-4-(5-(4-fluorophenyl)isoxazole-3-carbonyl)-5-isobutyl-N-methyl-6-oxopiperazine-2-carboxamide]",> 10000 nM,> 10000 nM,–,–
"CC(C)C[C@H]1C(=O)N[C@@H](c2ncco2)CN1C(=O)c1cc(-c2ccc(F)cc2)on1 [Compound 510, (3S,6R)-4-(5-(4-fluorophenyl)isoxazole-3-carbonyl)-3-isobutyl-6-(oxazol-2-yl)piperazin-2-one]",> 10000 nM,> 10000 nM,–,–
"CC(C)C[C@H]1C(=O)N[C@@H](c2ccccc2)CN1C(C)c1cc(-c2ccc(F)cc2)on1 (stereo partly drawn) [Compound 511, (3S,6S)-4-(1-(5-(4-fluorophenyl)isoxazol-3-yl)ethyl)-3-isobutyl-6-phenylpiperazin-2-one]",> 10000 nM,450 nM,–,–
"CC(C)C[C@H]1C(=O)N[C@@H](c2cnco2)CN1C(=O)c1cc(-c2ccc(F)cc2)on1 [Compound 516, (3S,6R)-4-(5-(4-fluorophenyl)isoxazole-3-carbonyl)-3-isobutyl-6-(oxazol-5-yl)piperazin-2-one]",> 10000 nM,–,–,110 nM
"CC(C)C[C@H]1C(=O)N[C@@H](c2cnco2)CN1C(=O)[C@@H]1C[C@H]1c1ccccc1 [Compound 517, (3S,6R)-3-isobutyl-6-(oxazol-5-yl)-4-((1R,2R)-2-phenylcyclopropane-carbonyl)piperazin-2-one]",> 10000 nM,190 nM,–,–
"CC(C)C[C@H]1C(=O)N[C@@H](c2cnco2)CN1C(=O)c1noc(-c2ccc(F)cc2)n1 [Compound 518, (3S,6R)-4-(5-(4-fluorophenyl)-1,2,4-oxadiazole-3-carbonyl)-3-isobutyl-6-(oxazol-5-yl)piperazin-2-one]",> 10000 nM,58 nM,–,–
"CC(C)C[C@H]1C(=O)N[C@@H](c2cnco2)CN1C(=O)c1cc(-c2ccc(F)cc2)no1 [Compound 519, (3S,6R)-4-(3-(4-fluorophenyl)isoxazole-5-carbonyl)-3-isobutyl-6-(oxazol-5-yl)piperazin-2-one]",> 10000 nM,110 nM,–,–
"CC(C)C[C@H]1C(=O)N[C@@H](c2cnco2)CN1C(=O)/C=C/c1ccc(F)cc1F [Compound 520, (3S,6R)-4-((E)-3-(2,4-difluorophenyl)acryloyl)-3-isobutyl-6-(oxazol-5-yl)piperazin-2-one]",> 10000 nM,470 nM,–,–
"CC(C)C[C@H]1C(=O)N[C@@H](c2cnco2)CN1C(=O)c1cc(-c2ccc(F)cc2F)on1 [Compound 522, (3S,6R)-4-(5-(2,4-difluorophenyl)isoxazole-3-carbonyl)-3-isobutyl-6-(oxazol-5-yl)piperazin-2-one]",> 10000 nM,270 nM,–,–
"CC(C)C[C@H]1C(=O)N[C@@H](c2ccc[nH]2)CN1C(=O)c1cc(-c2ccc(F)cc2)on1 [Compound 523, (3S,6R)-4-(5-(4-fluorophenyl)isoxazole-3-carbonyl)-3-isobutyl-6-(1H-pyrrol-2-yl)piperazin-2-one]",> 10000 nM,1060 nM,–,–
"CC(C)C[C@H]1C(=O)N[C@H](c2ccc[nH]2)CN1C(=O)c1cc(-c2ccc(F)cc2)on1 [Compound 524, (3S,6S)-4-(5-(4-fluorophenyl)isoxazole-3-carbonyl)-3-isobutyl-6-(1H-pyrrol-2-yl)piperazin-2-one]",> 10000 nM,> 10000 nM,–,–
"CC(C)C[C@H]1C(=O)N[C@@H](c2ccccc2)N1C(=O)c1cc(-c2ccc(F)cc2)on1 [Compound 528, (2R,5S)-1-(5-(4-fluorophenyl)isoxazole-3-carbonyl)-5-isobutyl-2-phenylimidazolidin-4-one]",> 10000 nM,> 10000 nM,–,–
"CC(C)C[C@H]1C(=O)N[C@H](c2ccccc2)N1C(=O)c1cc(-c2ccc(F)cc2)on1 [Compound 529, (2S,5S)-1-(5-(4-fluorophenyl)isoxazole-3-carbonyl)-5-isobutyl-2-phenylimidazolidin-4-one]",> 10000 nM,> 10000 nM,–,–
"CC(C)C[C@H]1C(=O)N[C@@H](c2ccccc2)N1C(=O)[C@H]1C[C@@H]1c1ccccc1 [Compound 530, (2R,5S)-5-isobutyl-2-phenyl-1-((1S,2S)-2-phenylcyclopropanecarbonyl)imidazolidin-4-one]",> 10000 nM,> 10000 nM,–,–
"CC(C)C[C@H]1C(=O)N[C@@H](c2ccccc2)N1C(=O)[C@H]1C[C@@H]1c1ccc(F)cc1 [Compound 532, (2R,5S)-1-((1S,2S)-2-(4-fluorophenyl)cyclopropanecarbonyl)-5-isobutyl-2-phenyl-imidazolidin-4-one]",> 10000 nM,> 10000 nM,–,–
